Drawing on patent US20160326142A1, “PYRAZOLE CARBOXAMIDE COMPOUNDS, COMPOSITIONS AND METHODS OF USE” (Genentech, Inc., priority 2012, published 2016), this text covers Ki for 20 compounds.

pKi: −log10 of the molar value.

This assay has as its target T1, ITK (Homo sapiens, UniProt Q08881).
T1 construct: purchased Invitrogen PV3875
T1 sequence (Q08881 1-620): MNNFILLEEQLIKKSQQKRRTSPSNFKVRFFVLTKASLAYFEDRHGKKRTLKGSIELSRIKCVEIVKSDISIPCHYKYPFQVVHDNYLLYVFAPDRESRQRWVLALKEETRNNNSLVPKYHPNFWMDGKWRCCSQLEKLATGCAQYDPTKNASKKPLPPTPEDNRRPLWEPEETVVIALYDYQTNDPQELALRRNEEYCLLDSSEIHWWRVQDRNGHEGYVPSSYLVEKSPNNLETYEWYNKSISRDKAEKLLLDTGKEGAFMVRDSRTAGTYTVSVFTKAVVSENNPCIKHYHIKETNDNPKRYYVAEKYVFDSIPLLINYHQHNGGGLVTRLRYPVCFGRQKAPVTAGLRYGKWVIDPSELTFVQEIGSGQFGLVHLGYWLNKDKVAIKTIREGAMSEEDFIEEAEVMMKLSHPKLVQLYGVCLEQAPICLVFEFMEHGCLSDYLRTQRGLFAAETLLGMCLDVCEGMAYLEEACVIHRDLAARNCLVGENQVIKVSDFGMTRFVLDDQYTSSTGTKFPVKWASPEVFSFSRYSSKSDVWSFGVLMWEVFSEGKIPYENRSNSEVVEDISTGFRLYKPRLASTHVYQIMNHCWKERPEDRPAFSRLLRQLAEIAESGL
In words: ITK enzyme assay (Caliper or LCMS peptide phosphorylation). The assay is classed as biochemical. The conditions noted are these: purified ITK (Invitrogen PV3875), 20 μM ATP, Ki by Morrison's quadratic equation. Put shortly: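 Ki values come from Morrison quadratic fits of activity versus inhibitor concentration, adjusted for ATP-competitive inhibition against ATP/Km,app. Substrate and phosphopeptide from purified ITK reactions were resolved either microfluidically (Caliper, EDTA stop) or by LC-MS MRM (TCA stop).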
`CC(c1cnn(C)c1)n1cc(NC(=O)c2n[nH]c3c2CCC(C)(C)C3)cn1` (single isomer, unassigned) [Example 91b, 6,6-dimethyl-N-(1-(1-(1-methyl-1H-pyrazol-4-yl)ethyl)-1H-pyrazol-4-yl)-4,5,6,7-tetrahydro-1H-indazole-3-carboxamide] gave a pKi of 7.72.
With `Cn1cc(C(c2ccccc2)n2cc(NC(=O)c3n[nH]c4c3CC3CC3C4)cn2)cn1` (single isomer, unassigned) [Example 27c, N-(1-((1-methyl-1H-pyrazol-4-yl)(phenyl)methyl)-1H-pyrazol-4-yl)-1,4,4a,5,5a,6-hexahydro cyclopropa[f]indazole-3-carboxamide] the figure was 7.35; with `Cn1cc(C(c2ccccc2)n2cc(NC(=O)c3n[nH]c4c3C3CC3CC4)cn2)cn1` (single isomer, unassigned) [Example 35b, N-(1-((1-methyl-1H-pyrazol-4-yl)(phenyl)methyl)-1H-pyrazol-4-yl)-3,4,5,5a,6,6a-hexahydro cyclopropa[e]indazole-1-carboxamide], 8.70; with `CC(c1cnn(C)c1)n1cc(NC(=O)c2n[nH]c3c2CCC(C)(C)C3)cn1` (single isomer, unassigned) [Example 91a, 6,6-dimethyl-N-(1-(1-(1-methyl-1H-pyrazol-4-yl)ethyl)-1H-pyrazol-4-yl)-4,5,6,7-tetrahydro-1H-indazole-3-carboxamide], 7.96.
To `CC12Cc3c(C(=O)Nc4cnn(C(c5ccccc5)C5CCS(=O)(=O)CC5)c4)n[nH]c3C1C2` (single isomer, unassigned) [Example 152c, N-(1-((1,1-dioxidotetrahydro-2H-thiopyran-4-yl)(phenyl)methyl)-1H-pyrazol-4-yl)-4a-methyl-4,4a,5,5a-tetrahydro-1H-cyclopropa[4,5]cyclopenta[1,2-c]pyrazole-3-carboxamide] belongs 8.70; to `CC1(N2CCOCC2)CCc2c(C(=O)Nc3cnn(Cc4ccccc4)c3)n[nH]c2C1` (single isomer, unassigned) [Example 149a, N-(1-benzyl-1H-pyrazol-4-yl)-6-methyl-6-morpholino-4,5,6,7-tetrahydro-1H-indazole-3-carboxamide], below 6.40; to `CC1(C)Cc2[nH]nc(C(=O)Nc3cnn(C(CS(C)(=O)=O)c4cccnc4)c3)c2C1` (single isomer, unassigned) [Example 97b, 5,5-dimethyl-N-(1-(2-(methylsulfonyl)-1-(pyridin-3-yl)ethyl)-1H-pyrazol-4-yl)-1,4,5,6-tetrahydrocyclopenta[c]pyrazole-3-carboxamide], 8.22.
To `CC1(C)CCc2c(C(=O)Nc3cnn(C(c4ccccc4)C4CNC4)c3)n[nH]c2C1` (single isomer, unassigned) [Example 34b, N-(1-(azetidin-3-yl(phenyl)methyl)-1H-pyrazol-4-yl)-6,6-dimethyl-4,5,6,7-tetrahydro-1H-indazole-3-carboxamide] belongs 9.15; to `O=C(Nc1cnn(Cc2ccccc2)c1)c1n[nH]c2c1CC1(CCOC1)C2` (single isomer, unassigned) [Example 79a, N-(1-benzyl-1H-pyrazol-4-yl)-4,4′,5′,6-tetrahydro-1H,2′H-spiro[cyclopenta[c]pyrazole-5,3′-furan]-3-carboxamide], 7.34; to `O=C(Nc1cnn(Cc2ccccc2)c1)c1n[nH]c2c1CC1(CCOC1)C2` (single isomer, unassigned) [Example 79b, N-(1-benzyl-1H-pyrazol-4-yl)-4,4′,5′,6-tetrahydro-1H,2′H-spiro[cyclopenta[c]pyrazole-5,3′-furan]-3-carboxamide], 7.02.
For `CC1(C)CCc2c(C(=O)Nc3cnn(C(c4cccc(C(C)(C)O)c4)C4CCS(=O)(=O)CC4)c3)n[nH]c2C1` (single isomer, unassigned) [Example 119a], the pKi was 10.00.
`CC1(C)CCc2c(C(=O)Nc3cnn(C(CN4CCOCC4)c4ccccc4)c3)n[nH]c2C1` (single isomer, unassigned) [Example 62b, 6,6-dimethyl-N-(1-(2-morpholino-1-phenylethyl)-1H-pyrazol-4-yl)-4,5,6,7-tetrahydro-1H-indazole-3-carboxamide] showed a pKi of 7.80.
As to `CC1(C)CCc2c(C(=O)Nc3cnn(C(c4cccnc4)C4CC[S+]([O-])CC4)c3)n[nH]c2C1` (single isomer, unassigned) [Example 147d, 6,6-dimethyl-N-(1-((1-oxidotetrahydro-2H-thiopyran-4-yl)(pyridin-3-yl)methyl)-1H-pyrazol-4-yl)-4,5,6,7-tetrahydro-1H-indazole-3-carboxamide], the pKi was 9.22.
As for `CC1(C)CCc2c(C(=O)Nc3cnn(C(c4ccccc4)C4CC[N+](C)([O-])CC4)c3)n[nH]c2C1` (single isomer, unassigned) [Example 140b, 4-((4-(6,6-dimethyl-4,5,6,7-tetrahydro-1H-indazole-3-carboxamido)-1H-pyrazol-1-yl)(phenyl)methyl)-1-methylpiperidine 1-oxide], the pKi is 7.85.
Turning to `CC1(C)Cc2[nH]nc(C(=O)Nc3cnn(Cc4ccccc4)c3)c2CC1CO` (single isomer, unassigned) [Example 95b, N-(1-benzyl-1H-pyrazol-4-yl)-5-(hydroxymethyl)-6,6-dimethyl-4,5,6,7-tetrahydro-1H-indazole-3-carboxamide], the pKi was 6.49.
With `CC1(O)CCc2c(C(=O)Nc3cnn(Cc4ccccc4)c3)n[nH]c2C1` (centres unmarked) [Example 51b, N-(1-benzyl-1H-pyrazol-4-yl)-6-hydroxy-6-methyl-4,5,6,7-tetrahydro-1H-indazole-3-carboxamide] the figure was 6.07.
To `CC(c1cncc(F)c1)n1cc(NC(=O)c2n[nH]c3c2CCC(C)(C)C3)cn1` (single isomer, unassigned) [Example 108b, N-(1-(1-(5-fluoropyridin-3-yl)ethyl)-1H-pyrazol-4-yl)-6,6-dimethyl-4,5,6,7-tetrahydro-1H-indazole-3-carboxamide] belongs 8.30; to `CC1CC(C(c2ccccc2)n2cc(NC(=O)c3n[nH]c4c3CCC(C)(C)C4)cn2)CCS1(=O)=O` (single isomer, unassigned) [Example 139f, 6,6-dimethyl-N-(1-((2-methyl-1,1-dioxidotetrahydro-2H-thiopyran-4-yl)(phenyl)methyl)-1H-pyrazol-4-yl)-4,5,6,7-tetrahydro-1H-indazole-3-carboxamide], 9.22.
To `COc1ccc(C(C)n2cc(NC(=O)c3n[nH]c4c3CCC(C)(C)C4)cn2)cn1` (single isomer, unassigned) [Example 109b, N-(1-(1-(6-methoxypyridin-3-yl)ethyl)-1H-pyrazol-4-yl)-6,6-dimethyl-4,5,6,7-tetrahydro-1H-indazole-3-carboxamide] belongs 7.68.
As for `CC1(C#N)CCc2c(C(=O)Nc3cnn(Cc4ccccc4)c3)n[nH]c2C1` (single isomer, unassigned) [Example 102b, N-(1-benzyl-1H-pyrazol-4-yl)-6-cyano-6-methyl-4,5,6,7-tetrahydro-1H-indazole-3-carboxamide], the negative logarithm of the Ki (pKi) is 8.00.
